Results as given in patent US10357493B2, “Metalloenzyme inhibitor compounds” (Selenity Therapeutics (Bermuda), Ltd., priority 2017, dated 2019).
pIC50: −log10 of the molar value.

Columns and labels:
HDAC1 = HDAC1 (Homo sapiens (Human), UniProt Q13547); test: HDAC1 enzymatic assay; type: biochemical; settings: read-out: Human HDAC1 IC50
In short: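 Compound inhibition of human HDAC1 (0.5 ng enzyme, 10 uM substrate) was assessed by fluorescence after developer treatment, excitation 360 nm and emission 460 nm. Percent activity was normalized to no-compound (100%) and no-enzyme (0%) controls, plotted against concentration, and fitted to a sigmoidal dose-response curve in Graphpad Prism to obtain IC50 at half-maximal activity.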

HDAC6 = HDAC6 (Homo sapiens (Human), UniProt Q9UBN7); test: HDAC6 enzymatic assay; type: biochemical; settings: read-out: Human HDAC6 IC50
Sequence of HDAC6 (Q9UBN7 whole entry): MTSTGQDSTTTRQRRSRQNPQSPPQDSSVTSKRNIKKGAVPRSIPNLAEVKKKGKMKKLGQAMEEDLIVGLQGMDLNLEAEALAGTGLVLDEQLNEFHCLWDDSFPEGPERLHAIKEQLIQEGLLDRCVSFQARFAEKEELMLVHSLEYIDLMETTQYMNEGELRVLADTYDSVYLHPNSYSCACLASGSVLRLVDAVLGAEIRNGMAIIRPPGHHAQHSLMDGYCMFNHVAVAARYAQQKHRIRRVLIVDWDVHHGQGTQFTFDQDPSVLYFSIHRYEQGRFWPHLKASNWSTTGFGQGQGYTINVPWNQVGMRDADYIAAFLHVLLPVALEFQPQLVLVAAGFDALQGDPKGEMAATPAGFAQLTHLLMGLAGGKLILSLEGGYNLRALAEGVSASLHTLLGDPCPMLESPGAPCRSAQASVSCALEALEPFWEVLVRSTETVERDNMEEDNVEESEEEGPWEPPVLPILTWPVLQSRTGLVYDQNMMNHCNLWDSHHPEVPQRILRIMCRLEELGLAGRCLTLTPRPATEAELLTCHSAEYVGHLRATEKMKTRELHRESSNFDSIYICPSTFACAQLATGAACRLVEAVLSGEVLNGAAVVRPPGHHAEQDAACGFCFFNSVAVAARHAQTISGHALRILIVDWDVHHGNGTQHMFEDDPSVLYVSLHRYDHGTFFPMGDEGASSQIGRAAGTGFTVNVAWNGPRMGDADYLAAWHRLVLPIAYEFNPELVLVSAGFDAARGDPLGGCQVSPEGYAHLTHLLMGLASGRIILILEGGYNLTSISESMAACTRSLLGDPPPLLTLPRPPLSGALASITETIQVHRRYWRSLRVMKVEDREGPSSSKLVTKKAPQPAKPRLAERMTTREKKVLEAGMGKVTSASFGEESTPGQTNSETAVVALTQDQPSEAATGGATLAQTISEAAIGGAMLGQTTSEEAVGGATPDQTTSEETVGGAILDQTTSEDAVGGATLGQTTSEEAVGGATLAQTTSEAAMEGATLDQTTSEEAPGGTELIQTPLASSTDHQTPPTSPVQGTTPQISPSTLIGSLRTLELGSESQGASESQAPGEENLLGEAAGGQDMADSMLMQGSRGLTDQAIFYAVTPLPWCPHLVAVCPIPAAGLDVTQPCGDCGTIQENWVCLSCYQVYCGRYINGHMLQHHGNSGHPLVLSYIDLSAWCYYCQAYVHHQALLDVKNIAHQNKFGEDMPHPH
In short: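 Following a 17 hour room-temperature incubation of 2 ng HDAC6 with 10 uM substrate and compound, 50 μl developer was added for another 20 minutes, and fluorescence (excitation 360 nm, emission 460 nm) was recorded. Activity was normalized to no-compound (100%) and no-enzyme (0%) wells, and IC50 came from sigmoidal dose-response fitting in Graphpad Prism.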

[1] = Mouse Pharmacokinetics, oral single dose; type: in vivo, male Swiss Albino mice; settings: male, Swiss Albino, plasma, 5 mg/kg, formulation by footnote: a 20% CremEL in H20, b 1% CMC in water, c 2% DMSO, 0.2% Tween80, 97.8% of 1% CMC
Protocol: Example 187: Mouse Pharmacokinetics
A dose of 5 mg/kg in an appropriate formulation was administered by oral gavage to fasted male Swiss Albino mice (n=3), and the plasma was collected at 0, 0.25, 0.5, 1, 2, 4, 8, and 24 h. Plasma levels were measured by HPLC/MS/MS methods and the pharmacokinetic parameters were determined for individual animals from plasma concentration-time data using noncompartmental model 200-202 in Phoenix WinNonlin 6.3.

Sequence of HDAC1 (Q13547 whole entry): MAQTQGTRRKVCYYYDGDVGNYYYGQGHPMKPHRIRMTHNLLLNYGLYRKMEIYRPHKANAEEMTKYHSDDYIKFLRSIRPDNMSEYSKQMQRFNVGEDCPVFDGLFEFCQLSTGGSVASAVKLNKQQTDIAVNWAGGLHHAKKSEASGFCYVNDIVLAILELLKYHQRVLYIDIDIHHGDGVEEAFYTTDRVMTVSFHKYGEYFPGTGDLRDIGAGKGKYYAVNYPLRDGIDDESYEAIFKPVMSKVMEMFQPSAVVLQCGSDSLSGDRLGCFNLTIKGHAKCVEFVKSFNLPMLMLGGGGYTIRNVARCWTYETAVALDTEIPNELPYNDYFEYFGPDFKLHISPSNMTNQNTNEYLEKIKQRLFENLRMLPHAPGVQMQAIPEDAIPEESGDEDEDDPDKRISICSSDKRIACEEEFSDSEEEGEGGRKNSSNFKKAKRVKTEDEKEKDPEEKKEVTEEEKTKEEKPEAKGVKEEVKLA

SMILES	pIC50 (HDAC1)	pIC50 (HDAC6)	Cmax [1]	half-life [1]
CS(=O)(=O)NCC(Nc1ncc(-c2nnc(C(F)F)o2)cn1)c1ccc(F)cc1F (single isomer, unassigned) [103(+), N-(2-((5-(5-(difluoromethyl)-1,3,4-oxadiazol-2-yl)pyrimidin-2-yl)amino)-2-(2,4-difluorophenyl)ethyl)methanesulfonamide]	< 4.52	7.80	2370 ng/mL	3.2 h
CN(CC(Nc1ncc(-c2nnc(C(F)F)o2)cn1)c1ccc(F)cc1)S(C)(=O)=O (single isomer, unassigned) [113(+), N-(2-((5-(5-(difluoromethyl)-1,3,4-oxadiazol-2-yl)pyrimidin-2-yl)amino)-2-(4-fluorophenyl)ethyl)-N-methylmethanesulfonamide]			1360 ng/mL	3.5 h
FC(F)c1nnc(-c2cnc(NC3(C4CCCCC4)CC3)nc2)o1 [Example 27, N-(1-cyclohexylcyclopropyl)-5-(5-(difluoromethyl)-1,3,4-oxadiazol-2-yl)pyrimidin-2-amine]	< 4.52	7.13		
FC(F)c1nnc(-c2cnc(NC3(c4ccc(Br)nc4)CC3)nc2)o1 [Example 64, N-(1-(6-bromopyridin-3-yl)cyclopropyl)-5-(5-(difluoromethyl)-1,3,4-oxadiazol-2-yl)pyrimidin-2-amine]	< 4.52	7.55		
CS(=O)(=O)NCc1ccc(C2(Nc3ncc(-c4nnc(C(F)F)o4)cn3)CC2)cc1 [Example 69, N-(4-(1-((5-(5-(difluoromethyl)-1,3,4-oxadiazol-2-yl)pyrimidin-2-yl)amino)cyclopropyl)benzyl) methanesulfonamide]	< 4.52	6.89		
FC(F)c1nnc(-c2cnc(NC3(c4cc(OCC(F)(F)F)ccc4Cl)CC3)nc2)o1 [Example 89, N-(1-(2-chloro-5-(2,2,2-trifluoroethoxy)phenyl)cyclopropyl)-5-(5-(difluoromethyl)-1,3,4-oxadiazol-2-yl)pyrimidin-2-amine]	< 4.52	7.00		
FC(F)c1nnc(-c2cnc(NC3(c4ccc(Br)cc4)CC3)nc2)o1 [Example 47, N-(1-(4-bromophenyl)cyclopropyl)-5-(5-(difluoromethyl)-1,3,4-oxadiazol-2-yl)pyrimidin-2-amine]	< 4.52	7.57		
CC(Nc1ncc(-c2nnc(C(F)F)o2)cn1)c1ccc(F)cn1 (centres unmarked) [Example 31, 5-(5-(difluoromethyl)-1,3,4-oxadiazol-2-yl)-N-(1-(5-fluoropyridin-2-yl)ethyl)pyrimidin-2-amine]	< 4.52	6.92		
CC(Nc1ncc(-c2nnc(C(F)F)o2)cn1)c1c(F)cccc1F (single isomer, unassigned; (-)) [100(−), (−)-5-(5-(difluoromethyl)-1,3,4-oxadiazol-2-yl)-N-(1-(2,6-difluorophenyl)ethyl)pyrimidin-2-amine]	< 4.52	< 6.00		
CN(CC(Nc1ncc(-c2nnc(C(F)F)o2)cn1)c1ccc(F)cc1F)S(C)(=O)=O (single isomer, unassigned) [137(+), N-(2-((5-(5-(difluoromethyl)-1,3,4-oxadiazol-2-yl)pyrimidin-2-yl)amino)-2-(2,4-difluorophenyl)ethyl)-N-methylmethanesulfonamide]	< 4.52	7.39		
CS(=O)(=O)NCC(Nc1ncc(-c2nnc(C(F)F)o2)cn1)c1ccc(Cl)cc1 (single isomer, unassigned) [173(−), N-(2-(4-chlorophenyl)-2-((5-(5-(difluoromethyl)-1,3,4-oxadiazol-2-yl)pyrimidin-2-yl)amino)ethyl)methanesulfonamide]	< 4.52	6.31		

The remaining lines, values ahead:

pIC50 (HDAC1)	pIC50 (HDAC6)	Cmax [1]	half-life [1]	SMILES
		47 ng/mL	2.7 h	O=C(CCCCCCNC(=O)c1cnc(N(c2ccccc2)c2ccccc2)nc1)NO [Ricolinostat, ricolinostat, reference compound]
< 4.52	6.74			Fc1ccc(C2(Nc3ncc(-c4nnc(C(F)F)o4)cn3)CCC(F)(F)CC2)cc1 [Example 37, N-(4,4-difluoro-1-(4-fluorophenyl)cyclohexyl)-5-(5-(difluoromethyl)-1,3,4-oxadiazol-2-yl)pyrimidin-2-amine]
< 4.52	6.82			O=S1(=O)CCCN1CC(Nc1ncc(-c2nnc(C(F)F)o2)cn1)c1ccc(F)cc1 (single isomer, unassigned; (-)) [120(−), (−)-2-(2-((5-(5-(difluoromethyl)-1,3,4-oxadiazol-2-yl)pyrimidin-2-yl)amino)-2-(4-fluorophenyl)ethyl)isothiazolidine 1,1-dioxide]
< 4.52	6.08			CS(=O)(=O)NCC(Nc1ncc(-c2nnc(C(F)F)o2)cn1)c1ccc(OC(F)(F)F)cc1 (single isomer, unassigned) [122(−), N-(2-((5-(5-(difluoromethyl)-1,3,4-oxadiazol-2-yl)pyrimidin-2-yl)amino)-2-(4-(trifluoromethoxy)phenyl)ethyl)methanesulfonamide]
< 4.52	6.41			CC(Nc1ncc(-c2nnc(C(F)(F)F)o2)cn1)c1ccccc1 (centres unmarked) [Example 2, N-(1-phenylethyl)-5-(5-(trifluoromethyl)-1,3,4-oxadiazol-2-yl)pyrimidin-2-amine]
< 4.52	6.80			N#Cc1cc(C2(Nc3ncc(-c4nnc(C(F)F)o4)cn3)CC2)ccn1 [Example 83, 4-(1-((5-(5-(difluoromethyl)-1,3,4-oxadiazol-2-yl)pyrimidin-2-yl)amino)cyclopropyl)picolinonitrile]
< 4.52	< 4.52			Fc1ccc(-c2ccccc2C2(Nc3ncc(-c4nnc(C(F)F)o4)cn3)CC2)cc1 [Example 14, 5-(5-(difluoromethyl)-1,3,4-oxadiazol-2-yl)-N-(1-(4′-fluoro-[1,1′-biphenyl]-2-yl)cyclopropyl)pyrimidin-2-amine]
< 4.52	7.80			COc1cc(F)c(C2(Nc3ncc(-c4nnc(C(F)F)o4)cn3)CC2)c(F)c1 [Example 106, N-(1-(2,6-difluoro-4-methoxyphenyl)cyclopropyl)-5-(5-(difluoromethyl)-1,3,4-oxadiazol-2-yl)pyrimidin-2-amine]
< 4.52	7.59			CS(=O)(=O)NCCC(Nc1ncc(-c2nnc(C(F)F)o2)cn1)c1ccc(F)cc1 (centres unmarked) [Example 125, N-(3-((5-(5-(difluoromethyl)-1,3,4-oxadiazol-2-yl)pyrimidin-2-yl)amino)-3-(4-fluorophenyl)propyl)methanesulfonamide]
< 4.52	7.68			CC(Nc1ncc(-c2nnc(C(F)F)o2)cn1)c1ccc(F)cc1 (single isomer, unassigned; (+)) [20(+), (+)-5-(5-(difluoromethyl)-1,3,4-oxadiazol-2-yl)-N-(1-(4-fluorophenyl)ethyl)pyrimidin-2-amine]
< 4.52	7.41			COc1cccc(C2(Nc3ncc(-c4nnc(C(F)F)o4)cn3)CC2)c1 [Example 43, 5-(5-(difluoromethyl)-1,3,4-oxadiazol-2-yl)-N-(1-(3-methoxyphenyl)cyclopropyl)pyrimidin-2-amine]
< 4.52	7.64			FC(F)c1nnc(-c2cnc(NC3(c4cccc(OC(F)(F)F)c4)CC3)nc2)o1 [Example 53, 5-(5-(difluoromethyl)-1,3,4-oxadiazol-2-yl)-N-(1-(3-(trifluoromethoxy)phenyl)cyclopropyl) pyrimidin-2-amine]
< 4.52	6.96			O=C1CCCN1CC(Nc1ncc(-c2nnc(C(F)F)o2)cn1)c1ccc(F)cc1 (single isomer, unassigned) [177(+), 1-(2-((5-(5-(difluoromethyl)-1,3,4-oxadiazol-2-yl)pyrimidin-2-yl)amino)-2-(4-fluorophenyl)ethyl)pyrrolidin-2-one]
< 4.52	6.80			O=S(=O)(C1CC1)N(CC(Nc1ncc(-c2nnc(C(F)F)o2)cn1)c1ccc(F)cc1F)CC(F)(F)F (stereo not drawn) [144(+), N-(2-((5-(5-(difluoromethyl)-1,3,4-oxadiazol-2-yl)pyrimidin-2-yl)amino)-2-(2,4-difluorophenyl)ethyl)-N-(2,2,2-trifluoroethyl)cyclopropanesulfonamide]
< 4.52	7.52			CC(Nc1ncc(-c2nnc(C(F)F)o2)cn1)c1c(F)cccc1F (single isomer, unassigned; (+)) [100(+), (+)-5-(5-(difluoromethyl)-1,3,4-oxadiazol-2-yl)-N-(1-(2,6-difluorophenyl)ethyl)pyrimidin-2-amine]
< 4.52	7.00			Fc1cc(C(F)(F)F)ccc1C1(Nc2ncc(-c3nnc(C(F)F)o3)cn2)CC1 [Example 71, 5-(5-(difluoromethyl)-1,3,4-oxadiazol-2-yl)-N-(1-(2-fluoro-4-(trifluoromethyl)phenyl)cyclopropyl)pyrimidin-2-amine]
